US12458609B2 (The General Hospital Corporation, priority 2018, dated 2025)

Legend:
[1] = in humans; cited from earlier work
[2] = test system: rats anesthetized with ketamine; assay: Recovery of consciousness after ketamine anesthesia in rats; format: in vivo; conditions: 8 rats, crossover; ketamine 50 mg/kg IV over 10 min; 5 min later dextroamphetamine 3 mg/kg IV over 2 min; saline mean 6.3 minutes; p<0.05
Protocol: A randomized, blinded, crossover design was used with 8 rats. After intravenous administration of ketamine (50 mg/kg IV) over 10 minutes, all rats became unconscious. […] The difference was statistically significant (p<0.05).

rat sedated with DEX = assay: Quadrant crossings in the cage after dexmedetomidine sedation (single rat); format: in vivo
Protocol: The data provided is from a single rat that underwent 3 experiments, with 3-4 days of rest between each session. FIG. 5 is a schematic of the experimental Design.
The rat received an intravenous infusion of dexmedetomidine (DEX, 50 mcg/kg) over 10 minutes, followed by a 5-minute rest period to switch medications. […] Note that 7.4 mg/kg of LDX is enzymatically cleaved to slowly release a total of 2.2 mg/kg of d-AMPH.
The cage was divided into 4 quadrants, and the number of times the rat crossed from one quadrant to another was recorded. Each data point represents the number of quadrant crossings in the cage during the preceding 15 minutes. […] By adjusting the relative doses of d-AMPH and LDX, a combination of these two drugs provided continuous, long-lasting reversal of DEX sedation, without the adverse side effects of administering a larger dose of d-AMPH, e.g., hyperactivity and large increases in heart rate and blood pressure.

[3] = test system: rats under propofol and sevoflurane anesthesia; conditions: Kenny et al., PLoS ONE 2015; cited from earlier work
rats sedated with DEX [4] = assay: Recovery of consciousness (righting reflex) in rats sedated with DEX; format: in vivo; conditions: 8 rats, crossover; DEX 50 micrograms/kg IV over 10 min; 5 min later dextroamphetamine 3 mg/kg IV over 2 min; saline mean 92 minutes; p<0.01
Excerpt: A randomized, blinded, crossover design was used with 8 rats. […] This difference was statistically significant (p<0.01).

rats sedated with DEX [5] = assay: LFP spectrogram and electromyogram analysis in rats sedated with DEX; format: in vivo; conditions: infusion after DEX infusion; FIG. 3 bottom panel
Excerpt: Spectrograms were constructed from continuous LFP recordings from the prefrontal cortex of rats. In these figures, spectral power (dB) at a given frequency (Hz) is represented by color and plotted over time.

| SMILES | half-life [1] | mean time to recovery of consciousness after ketamine [2] [min] | reversal of DEX sedation (movement, quadrant crossings) (rat sedated with DEX; DEX 50 mcg/kg IV over 10 min, d-AMPH 0.8 mg/kg alone, 2-minute IV infusion, FIG. 6) | time after which re-sedation occurred (rat sedated with DEX; DEX 50 mcg/kg IV, d-AMPH 0.8 mg/kg IV alone) [min] | reversal of general anesthesia [3] | mean time to regain consciousness (rats sedated with DEX [4]) [min] | low-frequency LFP power, consciousness and EMG activity (rats sedated with DEX [5]) |
| --- | --- | --- | --- | --- | --- | --- | --- |
| Cc1cccc([C@H](C)c2cnc[nH]2)c1C [DEX, Dexmedetomidine] | approximately 2 hours |  |  |  |  |  |  |
| C[C@H](N)Cc1ccccc1 [dextroamphetamine] |  | 11.6 | initially woke up and moved around | 30 | reverse propofol and sevoflurane anesthesia | 1.7 | rapidly decreased low-frequency LFP power, which coincided with return of consciousness (ROC) and increased EMG activity |
